≈ marks a conversion by molar mass, not a printed value. Read-outs that look alike come from different tables or passages of the source.

Data on eight molecules can be found in patent US6025385A, “Taxane derivatives and drugs containing the same” (Kabushiki Kaisha Yakult Honsha, priority 1996, dated 2000).

Series [1] is described as follows: Solubility in water (HPLC, shaken 2 hours at room temperature). To be noted: for Dissolved amount (Y): amount in 5 μl injected, purified water with 0.1 N hydrochloric acid, room temperature, 2 hours; for solubility thermodynamic at 2 h: water with 0.1 n hcl. Here is the method: I) Preparation of calibration curves:
Using 20 μl portions of the standard solutions, tests were conducted by HPLC (operation conditions 1).
[HPLC operation conditions 1]
Column: Inertsil ODS-2 (5-250), 40 deg.
Mobile phase: 0.01 M KH2 PO4 --CH3 CN (5:4).
Detection: Ultraviolet absorption photometer (225 nm), 0.08AUFS.
To the respective suspensions, 0.1 N hydrochloric acid was added in amounts of 35 λl and 30 μl (1.1 eq.). By ultrasonication the resulting mixtures were formed into uniform suspensions, which were then shaken at room temperature for 2 hours. The thus-obtained mixtures were filtered through membrane filters (0.22 pm), and the filtrates were provided as test solutions. Using 5 μl portions of the test solutions, tests were conducted by HPLC (operation conditions 1).
I) Preparation of calibration curve:
By ultra-sonication the suspension was formed into a uniform suspension, which was then shaken at room temperature for 2 hours.
Using 20 At of the standard solution, a test was conducted by HPLC (operation conditions 1).
Operation conditions for the HPLC operation were set as in Test 1.
By ultrasonication the resulting mixture was formed into a uniform suspension, which was then shaken at room temperature for 2 hours. The mixture was filtered through a membrane filter (0.22 pm), and the filtrate was provided as a test solution. Using 5 μl of the test solution, a test was conducted by HPLC (the above operation conditions).

The subject of series [2] is cell strain KB derived from a human mouth cancer. Briefly: Growth inhibitory activity against KB cells (XTT assay). The series is classed as cell-based. The conditions noted are these: for GI50: Homo sapiens, 72 h, read-out: 50% Growth Inhibitory Concentration (GI50), KB; for Activity ratio: KB GI50 relative to Taxol (Taxol = 1.0). Here is the method:
Growth Inhibitory Activities of Taxane Derivatives (1)
As a cell strain KB derived from a human mouth cancer, one purchased from Dainippon Pharmaceutical Co., Ltd. and stored in a lyophilized form at The Central Research Center, Yakult Honsha Co., Ltd. was used. In Dulbeccols modefied Earglets medium containing 10% fetal bovine serum (product of NISSUI PHARMACEUTICAL CO., LTD.), the KB was maintenance-cultured under the following conditions: 5%, CO2 -air, 37° C.
Each compound was used by dissolving it at a concentration of 10 mg/ml in DMSO.
On Day-1, cells which were in a logarithmic growth phase were inoculated at 2,000 cells/100 μl/well on 96-well microtiter plates (Falcon #3072) by using a phenol-red-free culture medium with 10% fetal bovine serum contained therein (Dulbecco's molefied Eargle's medium (Sigma)), and were cultured overnight. On Day 0, the compounds each of which had been diluted to 0.03 to 10,000 ng/ml with the same culture medium were added in 100 μl aliquots to the individual wells, and the cells were cultured for 3 days. Three wells were used per each drug concentration. Each plate was provided with three blank wells containing only the culture medium and also with eight wells as a drug-untreated control.
Before use, XTT (Sigma) was dissolved at a concentration of 1 mg/me in each culture media which as free of serum. Phenodin methosulfate (Sigma) dissolved at a concentration of 5 mM in PBS was added to the resulting solution at a volume ratio of 1/200. To each well, the solution so prepared was added in an amount of 50 μl per well. Subsequent to culture for 4 hours, OD was measured at 450 nm by ELISA.
Calculation of 50% Growth Inhibitory Concentration (GI50)
GI50 was calculated by interpolation from a concentration-growth inhibition rate (GIR). GIR was determined in accordance with the following formula: [formula] Bibiography Scudiero D A, et al., Cacer Res., 48, 4827-4833, 1988.
1994 Report of The Anticancer Agent Screening Special Committee, "Cancers and Chemotherapy", 21, 1306-1307.

The conditions of series [3]: background statement; cited from earlier work.
Series [4] relates to ovarian cancer and breast cancer. The conditions noted are these: Ann. int. Med. 111, 273, 1989; cited from earlier work.
Where [5] appears, read: purified water with hydrochloric acid.

Take `CC(=O)O[C@@]12CO[C@@H]1C[C@H](O)[C@@]1(C)C(=O)[C@H](OC(=O)N3CCC(N(C)C)CC3)C3=C(C)[C@@H](OC(=O)[C@H](O)[C@@H](NC(=O)OC(C)(C)C)c4ccccc4)C[C@@](O)([C@@H](OC(=O)c4ccccc4)[C@H]21)C3(C)C` [Compound 3, 13-O-[3-(tert-Butoxycarbonylamino)-2-hydroxy-3-phenylpropionyl]-10-O-(4-dimethylaminopiperidinocarbonyl)-10-deacetylbaccatin III]: in series [1], the “Dissolved amount (Y)” value is reported as 6.31 μg/5 μl and the thermodynamic solubility at 2 h worked out at 1260 µg/mL (≈ 1310 µM). The molecule also registered a solubility at 2 h in series [1] (setting [5]) of 1260 µg/mL (≈ 1310 µM).
Regarding `CCCN(CCC)C1CCN(C(=O)O[C@H]2C(=O)[C@@]3(C)[C@H]([C@H](OC(=O)c4ccccc4)[C@]4(O)C[C@H](OC(=O)[C@H](O)[C@@H](NC(=O)OC(C)(C)C)c5ccccc5)C(C)=C2C4(C)C)[C@]2(OC(C)=O)CO[C@@H]2C[C@@H]3O)CC1` [Compound 6, 13-O-[3-(tert-Butoxycarbonylamino)-2-hydroxy-3-phenylpropionyl]-10-O-(4-dipropylaminopiperidinocarbonyl)-10-deacetylbaccatin III], in series [2] (KB), the GI50 was found to be 0.73 ng/mL (≈ 0.000717 µM). Moreover, the Activity ratio in series [2] is listed as 2.7.
On to `CC(=O)O[C@@]12CO[C@@H]1C[C@H](O)[C@@]1(C)C(=O)[C@H](OC(=O)N3CCC(N4CCCCC4)CC3)C3=C(C)[C@@H](OC(=O)[C@H](O)[C@@H](NC(=O)OC(C)(C)C)c4ccccc4)C[C@@](O)([C@@H](OC(=O)c4ccccc4)[C@H]21)C3(C)C` [Compound 9, 13-O-[3-(tert-Butoxycarbonylamino)-2-hydroxy-3-phenylpropionyl]-10-O-(4-piperidinopiperidinocarbonyl)-10-deacetylbaccatin III], for which the GI50 in series [2] (KB cells, 3 days culture, XTT) came to 0.78 ng/mL (≈ 0.000778 µM). The Activity ratio in series [2] stood at 2.6.
Take `CC(=O)O[C@@]12CO[C@@H]1C[C@H](O)[C@@]1(C)C(=O)[C@H](OC(=O)N3CCN(C)CC3)C3=C(C)[C@@H](OC(=O)[C@H](O)[C@@H](NC(=O)OC(C)(C)C)c4ccccc4)C[C@@](O)([C@@H](OC(=O)c4ccccc4)[C@H]21)C3(C)C` [Compound 39, 13-O-[3-(tert-Butoxycarbonylamino)-2-hydroxy-3-phenylpropionyl]-10-O-(4-methylpiperazinocarbonyl)-10-deacetylbaccatin III]: the GI50 in series [2] (KB cells, 3 days culture, XTT) is 0.59 ng/mL (≈ 0.000632 µM). For the same molecule, in series [2], the Activity ratio turned out to be 3.4.
Regarding `CCN1CCN(C(=O)O[C@H]2C(=O)[C@@]3(C)[C@H]([C@H](OC(=O)c4ccccc4)[C@]4(O)C[C@H](OC(=O)[C@H](O)[C@@H](NC(=O)OC(C)(C)C)c5ccccc5)C(C)=C2C4(C)C)[C@]2(OC(C)=O)CO[C@@H]2C[C@@H]3O)CC1` [Compound 42, 13-O-[3-(tert-Butoxycarbonylamino)-2-hydroxy-3-phenylpropionyl]-10-O-(4-ethylpiperazinocarbonyl)-10-deacetylbaccatin III], in series [1], the “Dissolved amount (Y)” value was 5.90 μg/5 μl and the thermodynamic solubility at 2 h was 1180 µg/mL (≈ 1240 µM). In series [1] (setting [5]), this molecule gave a solubility at 2 h of 1180 µg/mL (≈ 1240 µM). Moreover, the GI50 in series [2] (KB) amounted to 0.65 ng/mL (≈ 0.000686 µM). The Activity ratio in series [2] came out at 3.1.
For the molecule `CC(=O)O[C@@]12CO[C@@H]1C[C@H](O)[C@@]1(C)C(=O)[C@H](OC(=O)N3CCN(CC(=O)NC(C)C)CC3)C3=C(C)[C@@H](OC(=O)[C@H](O)[C@@H](NC(=O)OC(C)(C)C)c4ccccc4)C[C@@](O)([C@@H](OC(=O)c4ccccc4)[C@H]21)C3(C)C` [Compound 45, 13-O-[3-(tert-Butoxycarbonylamino)-2-hydroxy-3-phenylpropionyl]-10-O-[4-(isopropylaminocarbonylmethyl)piperazinocarbonyl]-10-deacetylbaccatin III], the GI50 in series [2] (KB cells, 3 days culture, XTT) came out at 0.86 ng/mL (≈ 0.000844 µM). Moreover, in series [2], the Activity ratio was determined as 2.3.
As for `CC(=O)O[C@H]1C(=O)[C@@]2(C)[C@H]([C@H](OC(=O)c3ccccc3)[C@]3(O)C[C@H](OC(=O)[C@H](O)[C@@H](NC(=O)N4CCC(N5CCCCC5)CC4)c4ccccc4)C(C)=C1C3(C)C)[C@]1(OC(C)=O)CO[C@@H]1C[C@@H]2O` [Compound 58, 13-O-[2-Hydroxy-3-phenyl-3-(4-piperidinopiperidinocarbonylamino)propionyl]baccatin III], in series [1], the “Dissolved amount (Y)” value is listed as 7.95 μg/5 μl and the solubility (thermodynamic) at 2 h worked out at 1590 µg/mL (≈ 1680 µM). In series [1] (setting [5]), this molecule returned a solubility at 2 h of 1590 µg/mL (≈ 1680 µM).
Consider `CC(=O)O[C@H]1C(=O)[C@@]2(C)[C@H]([C@H](OC(=O)c3ccccc3)[C@]3(O)C[C@H](OC(=O)[C@H](O)[C@@H](NC(=O)c4ccccc4)c4ccccc4)C(C)=C1C3(C)C)[C@]1(OC(C)=O)CO[C@@H]1C[C@@H]2O` [Taxol, reference compound], for which the solubility at 2 h in series [1] (purified water) was found to be 0.4 µg/mL (≈ 0.468 µM). In addition, in series [2] (KB), the GI50 was 2 ng/mL (≈ 0.00234 µM). Further, the “solubility in water (in words)” value in series [3] is listed as “sparingly soluble in water”. In addition, the “efficacy against ovarian cancer and breast cancer” value in series [4] is “high efficacy against ovarian cancer and breast cancer”.
